Here are results for 31 compounds from patent publication US9983218B2, “Indole and indoline derivatives and methods of use thereof” (AbbVie Inc., priority 2008, dated 2018).

The test system of the assay is SK-N-SH human neuroblastoma cells. The assay can be described thus: Serum deprivation/JC-1 mitochondrial membrane potential (MMP) assay. The class given is cell-based. To be noted: Homo sapiens; for Emax: SK-N-SH, percent maximal intensity in JC-1 ratio normalized to 10 μM dimebolin, read-out: JC-1 max %; for EC50: SK-N-SH cells, serum deprivation ~18 hours, JC-1 ratio normalized to peak value for 10 μM dimebolin, single curve fit to mean data of n=2-3, read-out: EC50. Put shortly: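 Cells were serum-deprived ~18 h in MEM with or without compound (DMSO ≤1%), then stained with JC-1 for 35 min at 37° C. The red/green fluorescence ratio (560/595 vs 485/535 nm) was normalized to the peak response of 10 μM dimebolin. EC50 came from one curve fit to mean data (n=2-3, duplicates).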

`O=C1COc2cc(-n3c4c(c5ccccc53)CN3CCC4CC3)ccc2N1` [Example 275, 7-(1,3,4,5-tetrahydro-6H-2,5-ethanoazepino[4,3-b]indol-6-yl)-2H-1,4-benzoxazin-3(4H)-one]: the Emax worked out at 130% and the EC50 stood at 3.44 µM.
With `CN1C2CCC1c1c(n(CCc3ccc(Cl)cc3)c3ccc(C(F)(F)F)cc13)C2` (centres unmarked) [Example 98, 5-[2-(4-chlorophenyl)ethyl]-11-methyl-2-(trifluoromethyl)-5,6,7,8,9,10-hexahydro-7,10-epiminocyclohepta[b]indole], the Emax amounted to 176% and the EC50 turned out to be 7.26 µM.
The like results for `Cc1ccc(CCn2c3c(c4cc(-c5ccc(Cl)cc5)ccc42)C2CCC(C3)N2C)cn1` (centres unmarked) [Example 106, 2-(4-chlorophenyl)-11-methyl-5-[2-(6-methylpyridin-3-yl)ethyl]-5,6,7,8,9,10-hexahydro-7,10-epiminocyclohepta[b]indole] were, in that order, 238% and 5.73 µM.
Taken in the same sequence, the figures for `Fc1ccc2c(c1)c1c(n2Cc2cn3nc(Cl)ccc3n2)C2CCN(CC2)C1` [Example 253, 6-[(6-chloroimidazo[1,2-b]pyridazin-2-yl)methyl]-9-fluoro-3,4,5,6-tetrahydro-1H-2,5-ethanoazepino[4,3-b]indole] were 185% and 4.4 µM.
For the compound `Cc1ccc2c(c1)c1c(n2CCc2cccc(C(F)(F)F)c2)C2CCN(CC2)C1` [Example 152, 9-methyl-6-{2-[3-(trifluoromethyl)phenyl]ethyl}-3,4,5,6-tetrahydro-1H-2,5-ethanoazepino[4,3-b]indole], the Emax stood at 156% and the EC50 was 3.86 µM.
The like results for `CN1CCc2cc(-n3c4c(c5ccccc53)CN3CCC4CC3)ccc2C1` [Example 268, 6-(2-methyl-1,2,3,4-tetrahydroisoquinolin-6-yl)-3,4,5,6-tetrahydro-1H-2,5-ethanoazepino[4,3-b]indole] were, in that order, 237% and 4.43 µM.
As to `c1cnc2cc(-n3c4c(c5ccccc53)CN3CCC4CC3)ccc2c1` [Example 234, 6-quinolin-7-yl-3,4,5,6-tetrahydro-1H-2,5-ethanoazepino[4,3-b]indole], the Emax is 281% and the EC50 is 1.27 µM.
For `c1cc(N2CCOCC2)nc(-n2c3c(c4ccccc42)CN2CCC3CC2)c1` [Example 265, 6-[6-(morpholin-4-yl)pyridin-2-yl]-3,4,5,6-tetrahydro-1H-2,5-ethanoazepino[4,3-b]indole], the Emax came out at 264% and the EC50 came to 1.84 µM.
For the compound `Cc1ccc2c(c1)c1c(n2CCc2ccc(Cl)cc2)C[C@H]2CC[C@@H]1N2C` [Example 44, (7R,10S)-5-[2-(4-chlorophenyl)ethyl]-2,11-dimethyl-5,6,7,8,9,10-hexahydro-7,10-epiminocyclohepta[b]indole], the Emax was determined as 291% and the EC50 is 3.31 µM.
Take `Cc1ccc2c(c1)c1c(n2CCc2cnc(C)nc2)C[C@@H]2CC[C@H]1N2C` [Example 32, (7S,10R)-2,11-dimethyl-5-[2-(2-methylpyrimidin-5-yl)ethyl]-5,6,7,8,9,10-hexahydro-7,10-epiminocyclohepta[b]indole]: the Emax worked out at 53% and the EC50 is 17.3 µM.
The like results for `Cc1ccc(CCn2c3c(c4cc(OC(F)(F)F)ccc42)CN2CCC3CC2)cn1` [Example 178, 6-[2-(6-methylpyridin-3-yl)ethyl]-9-(trifluoromethoxy)-3,4,5,6-tetrahydro-1H-2,5-ethanoazepino[4,3-b]indole] were, in that order, 192% and 4.17 µM.
Taken in the same sequence, the figures for `Cc1ccc2c(c1)c1c(n2CCc2ccc(C)nc2)CC2CCC1N2C(=O)c1ccc(Cl)cc1` (centres unmarked) [Example 17, 11-(4-chlorobenzoyl)-2-methyl-5-[2-(6-methylpyridin-3-yl)ethyl]-5,6,7,8,9,10-hexahydro-7,10-epiminocyclohepta[b]indole] were 345% and 3.53 µM.
The like results for `CC(C)N(C)c1ccc(Cn2c3c(c4cc(F)ccc42)CN2CCC3CC2)cn1` [Example 242, 5-[(9-fluoro-1,3,4,5-tetrahydro-6H-2,5-ethanoazepino[4,3-b]indol-6-yl)methyl]-N-isopropyl-N-methylpyridin-2-amine] were, in that order, 169% and 8.12 µM.
`c1cnc2ccc(-n3c4c(c5ccccc53)CN3CCC4CC3)cc2c1` [Example 233, 6-quinolin-6-yl-3,4,5,6-tetrahydro-1H-2,5-ethanoazepino[4,3-b]indole]: the Emax came to 250% and the EC50 stood at 0.8 µM.
Taken in the same sequence, the figures for `Fc1ccc2c(c1)c1c(n2Cc2ccc(-n3cccn3)nc2)C2CCN(CC2)C1` [Example 247, 9-fluoro-6-{[6-(1H-pyrazol-1-yl)pyridin-3-yl]methyl}-3,4,5,6-tetrahydro-1H-2,5-ethanoazepino[4,3-b]indole] were 192% and 4.65 µM.
For `Cc1ccc2c(c1)c1c(n2CCc2ccccc2C)C[C@H]2CCC[C@@H]1N2` (single isomer, unassigned) [Example 127], the Emax came to 151% and the EC50 was found to be 3.69 µM.
The like results for `Cc1ccc2c(c1)c1c(n2-c2ccc3ncncc3c2)C2CCN(CC2)C1` [Example 219, 9-methyl-6-quinazolin-6-yl-3,4,5,6-tetrahydro-1H-2,5-ethanoazepino[4,3-b]indole] were, in that order, 201% and 3.07 µM.
On to `c1ccc2c(c1)c1c(n2-c2ccc3c(c2)CCNC3)C2CCN(CC2)C1` [Example 267, 6-(1,2,3,4-tetrahydroisoquinolin-6-yl)-3,4,5,6-tetrahydro-1H-2,5-ethanoazepino[4,3-b]indole], for which the Emax stood at 70% and the EC50 worked out at 9.72 µM.
In the case of `Cc1cc(Cn2c3c(c4cc(F)ccc42)CN2CCC3CC2)on1` [Example 252, 9-fluoro-6-[(3-methyl-1,2-oxazol-5-yl)methyl]-3,4,5,6-tetrahydro-1H-2,5-ethanoazepino[4,3-b]indole], the Emax came to 109% and the EC50 came out at 6.2 µM.
Taken in the same sequence, the figures for `Cc1ccc(/C=C\n2c3c(c4cc(S(C)(=O)=O)ccc42)CN2CCC3CC2)cn1` [Example 181, 6-[(Z)-2-(6-methylpyridin-3-yl)vinyl]-9-(methylsulfonyl)-3,4,5,6-tetrahydro-1H-2,5-ethanoazepino[4,3-b]indole] were 103% and 7.89 µM.
For `Fc1ccc2c(c1)c1c(n2Cc2coc(-c3ccccc3)n2)C2CCN(CC2)C1` [Example 173, 9-fluoro-6-[(2-phenyl-1,3-oxazol-4-yl)methyl]-3,4,5,6-tetrahydro-1H-2,5-ethanoazepino[4,3-b]indole], the Emax was determined as 120% and the EC50 worked out at 6.15 µM.
Regarding `Cc1ccc(CCn2c3c(c4cc(C(C)(C)C)ccc42)C2CCC(C3)N2C)cn1` (centres unmarked) [Example 104, 2-tert-butyl-11-methyl-5-[2-(6-methylpyridin-3-yl)ethyl]-5,6,7,8,9,10-hexahydro-7,10-epiminocyclohepta[b]indole], the Emax came to 178% and the EC50 turned out to be 4.16 µM.
Taken in the same sequence, the figures for `Cc1ncc(-n2c3c(c4cc(F)ccc42)CN2CCC3CC2)cn1` [Example 263, 9-fluoro-6-(2-methylpyrimidin-5-yl)-3,4,5,6-tetrahydro-1H-2,5-ethanoazepino[4,3-b]indole] were 108% and 11 µM.
Consider `Cc1ccc(CCn2c3c(c4cc(S(C)(=O)=O)ccc42)CN2CCC3CC2)cn1` [Example 182, 6-[2-(6-methylpyridin-3-yl)ethyl]-9-(methylsulfonyl)-3,4,5,6-tetrahydro-1H-2,5-ethanoazepino[4,3-b]indole], for which the Emax is 60% and the 50% effective concentration (EC50) is 9.28 µM.
Taken in the same sequence, the figures for `CC(C)c1ccc2c(c1)c1c(n2CCc2ccc(Cl)cc2)C[C@H]2CC[C@@H]1N2C` (single isomer, unassigned) [Example 100] were 140% and 3.63 µM.
Take `Cc1ccc2c(c1)c1c(n2CCc2ccc(Cl)cc2)C2CCN(CC2)C1` [Example 151, 6-[2-(4-chlorophenyl)ethyl]-9-methyl-3,4,5,6-tetrahydro-1H-2,5-ethanoazepino[4,3-b]indole]: the Emax was 121% and the EC50 was found to be 5.38 µM.
The like results for `O=c1cccnn1-c1ccc(-n2c3c(c4ccccc42)CN2CCC3CC2)cc1` [Example 287, 2-[4-(1,3,4,5-tetrahydro-6H-2,5-ethanoazepino[4,3-b]indol-6-yl)phenyl]pyridazin-3(2H)-one] were, in that order, 209% and 1.53 µM.
Turning to `Cc1ccc2c(c1)c1c(n2/C=C/c2ccc(C)nc2)CC2CCCC1N2C` (centres unmarked) [Example 122, 2,12-dimethyl-5-[(E)-2-(6-methylpyridin-3-yl)vinyl]-6,7,8,9,10,11-hexahydro-5H-7,11-epiminocycloocta[b]indole], the Emax came out at 141% and the EC50 is 5.29 µM.
The like results for `Cc1ccc2c(c1)c1c(n2CCc2ccc(C)nc2)CC2CCC1N2S(=O)(=O)c1ccc(C(F)(F)F)cc1` (centres unmarked) [Example 18, 2-methyl-5-[2-(6-methylpyridin-3-yl)ethyl]-11-{[4-(trifluoromethyl)phenyl]sulfonyl}-5,6,7,8,9,10-hexahydro-7,10-epiminocyclohepta[b]indole] were, in that order, 307% and 3.19 µM.
The like results for `Oc1ncnc2ccc(-n3c4c(c5cc(F)ccc53)CN3CCC4CC3)cc12` [Example 259, 6-(9-fluoro-1,3,4,5-tetrahydro-6H-2,5-ethanoazepino[4,3-b]indol-6-yl)quinazolin-4-ol] were, in that order, 126% and 3.2 µM.
The like results for `c1ccc2c(c1)c1c(n2Cc2ccncc2)C2CCN(CC2)C1` [Example 189, 6-[(pyridin-4-yl)methyl]-3,4,5,6-tetrahydro-1H-2,5-ethanoazepino[4,3-b]indole] were, in that order, 107% and 11.3 µM.

In general, EC50 refers to the concentration needed to bring the measured effect to its halfway point.
